The source of these data is patent US5858702A, “Isolation, cloning and expression of transmembrane water channel Aquaporin 5 (AQP5)” (The Johns Hopkins University, priority 1995, dated 1999).

The structures appear in SMILES notation. “Also recorded” adds a separate entry of the source.

One assay deals with Red cell water channels. To be noted: submillimolar concentrations; cited from earlier work.
The target of a further assay is T1, AQP5 (Rattus norvegicus, UniProt P47864).
T1 construct: expressed in transfected cells; host or cells: Xenopus oocytes (defolliculated, stage V-VI) injected with cRNA
T1 sequence (P47864 whole entry): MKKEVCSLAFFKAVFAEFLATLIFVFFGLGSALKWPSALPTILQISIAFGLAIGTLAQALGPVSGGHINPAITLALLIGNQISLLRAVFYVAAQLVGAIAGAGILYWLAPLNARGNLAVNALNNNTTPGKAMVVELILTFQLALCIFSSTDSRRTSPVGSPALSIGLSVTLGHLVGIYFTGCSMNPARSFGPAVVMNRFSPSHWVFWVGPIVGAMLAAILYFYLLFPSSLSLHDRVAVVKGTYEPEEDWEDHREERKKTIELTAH
As to the kind of experiment: Xenopus oocyte swelling assay, AQP5-expressing oocytes treated with HgCl2 / β-mercaptoethanol. To be noted: for effect of HgCl2 on Pf of oocytes expressing AQP5: 1 mM HgCl2, 5 min. The class given is cell-based. The method, then: Functional expression in Oocytes--A 1-kb BamHI fragment containing the 5' untranslated sequence and the entire open reading frame of the salivary cDNA was blunt-end-ligated into the BglII site of the Xenopus expression construct pXβG, which contains the HindIII-Pst insert of pSP64T in pBS II KS (Preston et al., 1992, Science, 256:385-387). Capped cRNA was synthesized in vitro after digestion with Xbal (Preston et al., 1993). Defolliculated stage V-VI Xenopus oocytes were injected with 50 nl of water or up to 5 ng of sample cRNAs and incubated for 3 days at 18° C. in 200 mosM modified Barth's buffer. The oocytes were transferred to 70 mosM modified Barth's buffer at 21° C.; oocyte swelling was monitored by videomicroscopy, and the coefficient of osmotic water permeability (Pf) was determined (Preston et al., 1992, 1993). Uptake of [^14 C]urea or [^14 C]glycerol was measured by incubating oocytes in 200 mosM Barth's buffer for 10-20 min at 21° C. followed by washing and SDS solubilization. No increase in ion conductance was found when control oocytes were compared to RNA-injected oocytes by two electrode voltage clamps (Preston et al, 1992).
Shown are the mean values and standard deviations of 4-5 oocytes receiving no further treatment (stippled bars), oocytes incubated for 5 min. in 1 mM HgCl2 (black bars), or oocytes incubated for 5 min. in 1 mM HgCl2 followed by 30 min. in 5 mM β-mercaptoethanol (open bars). Similar to oocytes injected with AQP1 cRNA, injection of oocytes with the salivary cRNA increased the Pf by approximately 20-fold (FIG. 15). Therefore, the salivary protein qualifies as the 5th mammalian member of the Aquaporin family of water channels (Agre et al., 1993b, Am. J. Physiol., 265:F461), and the gene has been designated Aquaporin-5 (symbol AQP5) by the Genome Data Base.

For a further assay, the target named is T2, AQP1 (Homo sapiens, UniProt P29972).
T2 construct: expressed in transfected cells; host or cells: Xenopus laevis oocytes injected with in vitro transcribed AQP1 RNA
T2 sequence (P29972 1-269): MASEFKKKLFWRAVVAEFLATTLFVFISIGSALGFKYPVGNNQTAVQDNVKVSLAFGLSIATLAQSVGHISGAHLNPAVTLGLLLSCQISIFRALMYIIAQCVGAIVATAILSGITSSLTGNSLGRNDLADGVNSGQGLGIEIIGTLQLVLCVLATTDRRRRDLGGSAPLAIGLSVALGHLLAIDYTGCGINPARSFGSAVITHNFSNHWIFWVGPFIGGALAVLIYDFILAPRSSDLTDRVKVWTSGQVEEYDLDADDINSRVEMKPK
Briefly: Xenopus oocyte osmotic swelling assay, AQP1 RNA-injected oocytes treated with HgCl2 / β-mercaptoethanol. To be noted: for Pf: AQP1 RNA-injected (10 ng) oocytes. The class given is cell-based. The method, then:
(§1) Expression of AOP1 in Xenopus oocytes. Oocytes were removed from female Xenopus laevis frogs and prepared as described by Dascal (CRC Crit. Rev. Biochem., 1987, 22:317-373). Oocytes were injected with 0.05 microliters of water (control) or the same volume of water containing 1-10 nanograms of AQP1 RNA. The oocytes were incubated for up to 96 hours at 18° C. in modified Barth's buffer (88 mM NaCl, 1 mM KCl, 0.8 mM MgSO4, 0.3 mM Ca(NO3) 2, 0.4 mM CaCl2, 2.4 mM NaHCO3, 10 mM HEPES, pH =7.4, total osmolality =200 mOsm/kg) also containing antibiotics. The whole oocytes were then removed and total cellular protein was dissolved in 40 microliters of buffer containing 1% (w/v) SDS and analyzed by immunoblot (Towbin et al., 1979, Proc. Natl. Acad. Sci. USA 76:4350-4354).
A swelling assay was adapted from that of published work (Fischbarg et al., 1990, Proc. Natl. Acad. Sci. USA 87:3244-3247; Zhang et al., 1990, J. Biol. Chem. 265:15375-15378). Control-injected oocytes and AQP1 RNA-injected oocytes were incubated at 22° C. in modified Barth's solution diluted with distilled H2 O to 30% of the original tonicity. The oocytes were then observed by videomicroscopy. Swelling was monitored with a Nikon phase-contrast microscope equipped for videorecording. The longest (D1) and shortest (D2) diameters of the oocytes were measured at 15- to 30-second intervals. Oocyte volumes (V) at each time point were calculated relative to volume at the initial observation (V0):
The change in relative volume with time, d(V/Vo)/dt, up to 8 minutes (or time of oocyte rupture) was fitted by computer to a quadratic polynomial, and initial rates of swelling were calculated. Osmotic water permeability (Pf, in cm/s) was calculated from osmotic swelling data, initial oocyte surface area (S=0.045 cm^2), and the molar volume of water (Vw =18 cm^3 /mol) (Zhang et al., 1990, J. Biol. Chem. 15375):
Pf =[Vo ×d(V/V0)dt]/[S×Vw
After 72 hours, control- or AQP1 RNA-injected (10 ng) oocytes were treated as indicated. Some oocytes were left in standard Barth's buffer prior to measurement of osmotic swelling at 22° C. […]

The subject of a further assay is Xenopus oocytes. Briefly: Osmotic water permeability (swelling) of control- or AQP1 RNA-injected Xenopus oocytes. Type of assay: cell-based, Xenopus laevis. To be noted: control-injected oocytes (RNA None), 22° C. The method, then: as §1
A swelling assay was adapted from that of published work (Fischbarg et al., 1990, Proc. Natl. Acad. Sci. USA 87:3244-3247; Zhang et al., 1990, J. Biol. Chem. 265:15375-15378). […] Swelling was monitored with a Nikon phase-contrast microscope equipped for videorecording. The longest (D1) and shortest (D2) diameters of the oocytes were measured at 15- to 30-second intervals. Oocyte volumes (V) at each time point were calculated relative to volume at the initial observation (V0): […]

As for `[Cl][Hg][Cl]` [HgCl2], the “inhibition of red cell water channels” value with Red cell water channels is recorded as “can be inhibited by submillimolar concentrations”. The results for the “effect of HgCl2 on Pf of oocytes expressing AQP5” value at AQP5 and on AQP5 (listed as Hg Cl2) were “comparable reduction in Pf; also recorded: reversibly inhibited” and “reversibly inhibited”, respectively. Besides, the “Swelling of AQP1 RNA-injected oocytes, effect of HgCl2” value on AQP1 (0.3 mM HgCl2) was “inhibited”. The “effect of HgCl2 on increase in Pf mediated by AQP1” value on AQP1 (1 mM HgCl2, 5 min. (FIG. 15)) was “blocked”. The Pf is listed as 80.7 cm/s x 10^-4 on AQP1 (72 hours, HgCl2 0.3, ME 0, 5 minutes, swelling at 22° C.); 34.5 cm/s x 10^-4 at AQP1 (72 hours, HgCl2 3.0, ME 0, 5 minutes, 22° C.); 20.3 cm/s x 10^-4 in the assay with Xenopus oocytes (HgCl2 0.3 (nM), ME 0).

With `OCCS` [β-mercaptoethanol], the “Pf of AQP5 oocytes after HgCl2, effect of β-mercaptoethanol” value at AQP5 (5 mM β-mercaptoethanol 30 min. after 1 mM HgCl2) is reported as “restored”. Also, the “Pf of AQP1 oocytes after HgCl2, effect of β-mercaptoethanol” value at AQP1 (5 mM β-mercaptoethanol 30 min. after 1 mM HgCl2 (FIG. 15)) was “restored”. For the same molecule, the “Swelling of AQP1 RNA-injected oocytes after HgCl2, effect of β-mercaptoethanol” value on AQP1 (5 mM β-mercaptoethanol after 0.3 mM HgCl2) was “restored”. For the same molecule, the Pf on AQP1 (HgCl2 0.3 then ME 5 for 15 min, 22° C.) is recorded as 188 cm/s x 10^-4; with Xenopus oocytes, 25.4 cm/s x 10^-4.
